In general, IC50 refers to the concentration at which inhibition is half-maximal. The Ki is the dissociation constant of the complex between target and ligand, obtained from inhibition or displacement.

In ChEMBL document CHEMBL1909046, “DrugMatrix in vitro pharmacology data” one finds IC50 and Ki data, which are given here for 20 compounds.

Assay [1] addresses Platelet-activating factor receptor (Homo sapiens, UniProt P25105). Type of assay: tissue-based.
The target in a further assay is T1, Neutrophil elastase (Homo sapiens, UniProt P08246).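 Note: inhibition of neutrophil elastase enzyme activity, measured with a p-nitroanilide-linked peptide substrate; in other assays of this panel Not Active means under 50% inhibition at 10 µM.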
T1 sequence (P08246 whole entry): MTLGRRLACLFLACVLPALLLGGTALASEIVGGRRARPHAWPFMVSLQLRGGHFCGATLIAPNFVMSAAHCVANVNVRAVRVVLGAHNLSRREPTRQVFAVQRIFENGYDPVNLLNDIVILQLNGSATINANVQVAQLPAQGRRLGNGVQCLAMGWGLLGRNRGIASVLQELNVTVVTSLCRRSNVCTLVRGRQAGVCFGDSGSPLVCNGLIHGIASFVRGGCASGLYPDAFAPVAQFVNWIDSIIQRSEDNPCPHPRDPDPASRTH
It counts as tissue-based.

For assay [2], the target named is T2, 5-hydroxytryptamine receptor 2C (Homo sapiens, UniProt P28335).
T2 sequence (P28335 whole entry): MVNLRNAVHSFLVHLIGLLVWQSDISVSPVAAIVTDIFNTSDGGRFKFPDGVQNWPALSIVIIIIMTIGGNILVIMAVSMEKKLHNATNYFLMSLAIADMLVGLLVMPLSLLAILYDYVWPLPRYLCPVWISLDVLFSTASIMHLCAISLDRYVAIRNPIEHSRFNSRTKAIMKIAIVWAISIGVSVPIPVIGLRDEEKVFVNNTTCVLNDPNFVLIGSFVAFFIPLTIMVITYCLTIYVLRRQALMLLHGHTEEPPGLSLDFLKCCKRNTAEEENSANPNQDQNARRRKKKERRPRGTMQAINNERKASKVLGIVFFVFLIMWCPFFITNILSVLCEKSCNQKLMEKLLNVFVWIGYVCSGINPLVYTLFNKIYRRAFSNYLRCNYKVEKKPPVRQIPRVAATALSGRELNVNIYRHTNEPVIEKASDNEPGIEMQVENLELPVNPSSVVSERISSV
The assay is described as follows: DRUGMATRIX: Serotonin (5-Hydroxytryptamine) 5-HT2C radioligand binding (ligand: [3H] Mesulergine). It counts as cell membranes, CHO-K1, Membrane. As to conditions: Not Active = under 50% inhibition at 10 µM; for Ki: read-out: Ki.

In assay [3] the target is Aldo-keto reductase family 1 member B1 (Rattus norvegicus, UniProt P07943). The assay is described as follows: biochemical. It counts as tissue-based, Lens of camera-type eye.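 Note: inhibition of aldose reductase enzyme activity, measured with DL-glyceraldehyde as the substrate; in other assays of this panel Not Active means under 50% inhibition at 10 µM.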
For assay [4], the target named is T3, Polyunsaturated fatty acid lipoxygenase ALOX15 (Oryctolagus cuniculus, UniProt P12530).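 Note: inhibition of 15-lipoxygenase enzyme activity measured with linoleic acid as the substrate; in other assays of this panel Not Active means under 50% inhibition at 10 µM.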
T3 sequence (P12530 whole entry): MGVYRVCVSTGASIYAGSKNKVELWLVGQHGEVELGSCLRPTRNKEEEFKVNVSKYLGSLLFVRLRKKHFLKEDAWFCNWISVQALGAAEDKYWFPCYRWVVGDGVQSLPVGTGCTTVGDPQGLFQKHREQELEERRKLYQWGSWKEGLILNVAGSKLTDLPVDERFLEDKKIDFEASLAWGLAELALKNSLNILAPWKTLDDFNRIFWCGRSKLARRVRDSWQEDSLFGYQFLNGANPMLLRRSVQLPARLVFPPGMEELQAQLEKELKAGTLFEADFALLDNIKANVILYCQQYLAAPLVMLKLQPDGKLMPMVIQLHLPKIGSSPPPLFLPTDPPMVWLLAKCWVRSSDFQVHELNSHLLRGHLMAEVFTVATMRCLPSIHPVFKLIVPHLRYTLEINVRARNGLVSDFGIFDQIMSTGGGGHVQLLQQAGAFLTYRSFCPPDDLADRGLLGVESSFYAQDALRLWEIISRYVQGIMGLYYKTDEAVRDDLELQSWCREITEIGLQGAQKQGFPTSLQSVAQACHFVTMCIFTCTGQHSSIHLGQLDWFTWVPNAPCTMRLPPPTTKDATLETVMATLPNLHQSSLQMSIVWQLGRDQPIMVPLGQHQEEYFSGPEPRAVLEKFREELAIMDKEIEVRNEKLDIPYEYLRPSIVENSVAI
The assay is described as follows: biochemical. Type of assay: tissue-based, Reticulocytes.

In assay [5] the target is T4, 5-hydroxytryptamine receptor 1A (Rattus norvegicus, UniProt P19327). Note: in other assays of this panel Not Active means under 50% inhibition at 10 µM.
T4 sequence (P19327 whole entry): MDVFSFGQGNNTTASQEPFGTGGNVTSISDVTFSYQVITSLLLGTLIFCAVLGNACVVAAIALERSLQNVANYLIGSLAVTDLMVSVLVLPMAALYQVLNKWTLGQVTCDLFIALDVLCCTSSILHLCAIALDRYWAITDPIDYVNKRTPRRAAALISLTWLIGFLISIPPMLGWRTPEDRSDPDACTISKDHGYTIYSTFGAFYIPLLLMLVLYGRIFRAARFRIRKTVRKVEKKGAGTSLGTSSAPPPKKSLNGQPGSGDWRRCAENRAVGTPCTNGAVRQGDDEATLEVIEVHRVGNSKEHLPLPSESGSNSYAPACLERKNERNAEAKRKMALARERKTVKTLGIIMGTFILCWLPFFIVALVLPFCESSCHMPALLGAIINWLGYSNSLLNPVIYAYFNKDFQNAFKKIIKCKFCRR
It counts as cell membranes, CHO-K1, Membrane.

Platelet-activating factor receptor, sequence (P25105 whole entry): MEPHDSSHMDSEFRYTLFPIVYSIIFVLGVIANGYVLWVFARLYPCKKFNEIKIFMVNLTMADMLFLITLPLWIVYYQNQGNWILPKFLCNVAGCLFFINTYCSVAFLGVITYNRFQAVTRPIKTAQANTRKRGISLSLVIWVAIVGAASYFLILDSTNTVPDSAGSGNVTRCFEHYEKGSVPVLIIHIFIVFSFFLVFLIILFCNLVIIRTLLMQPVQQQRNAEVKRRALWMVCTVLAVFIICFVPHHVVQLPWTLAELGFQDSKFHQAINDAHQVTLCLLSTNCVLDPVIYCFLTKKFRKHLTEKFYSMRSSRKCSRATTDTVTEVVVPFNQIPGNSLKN

On to `CC(=O)OCC(=O)[C@@]1(O)CC[C@H]2[C@@H]3CCC4=CC(=O)CC[C@]4(C)[C@@]3(F)[C@@H](O)C[C@@]21C` [FLUDROCORTISONE ACETATE], for which the IC50 result (in assay [1]; at Neutrophil elastase; in assay [2] (cho-k1); in assay [3]; in assay [4] (reticulocytes); in assay [5] (cho-k1)) was “Not Active” throughout.
For `CCOC(=O)c1ncn2c1CN(C)C(=O)c1cc(F)ccc1-2` [FLUMAZENIL], the half-inhibitory concentration (IC50) result (in assay [1]; against Neutrophil elastase; in assay [2] (cho-k1); in assay [3]; in assay [4] (reticulocytes); in assay [5] (cho-k1)) was “Not Active” throughout.
In the case of `CC(=O)OCC(=O)[C@@]12OC(C)(C)O[C@@H]1C[C@H]1[C@@H]3C[C@H](F)C4=CC(=O)C=C[C@]4(C)[C@@]3(F)[C@@H](O)C[C@@]12C` [FLUOCINONIDE], the IC50 entry (in assay [1]; at Neutrophil elastase; in assay [2] (cho-k1); in assay [3]; in assay [4] (reticulocytes); in assay [5] (cho-k1)) was “Not Active” each time.
Take `O=C(O)P(=O)(O)O` [FOSCARNET]: the half-maximal inhibitory concentration (IC50) entry (in assay [1]; at Neutrophil elastase; in assay [2] (cho-k1); in assay [3]; in assay [4] (reticulocytes); in assay [5] (cho-k1)) was “Not Active” each time.
On to `Cc1ccc(C)c(OCCCC(C)(C)C(=O)O)c1` [GEMFIBROZIL], for which the IC50 entry (in assay [1]; at Neutrophil elastase; in assay [2] (cho-k1); in assay [3]; in assay [4] (reticulocytes); in assay [5] (cho-k1)) was “Not Active” in each case.
As for `O=c1c(-c2ccc(O)cc2)coc2cc(O)cc(O)c12` [GENISTEIN], the IC50 entry in assay [1] is “Not Active”; against Neutrophil elastase, “Not Active”; in assay [2] (read-out: IC50), 14900 nM; in assay [3] (read-out: IC50), 45000 nM; in assay [4] (read-out: IC50) it was 9030 nM; in assay [5] (cho-k1), “Not Active”. Besides, the Ki in assay [2] was 7810 nM.
On to `CCC1=C(C)CN(C(=O)NCCc2ccc(S(=O)(=O)NC(=O)N[C@H]3CC[C@H](C)CC3)cc2)C1=O` [GLIMEPIRIDE], for which the IC50 result (in assay [1]; on Neutrophil elastase; in assay [2] (cho-k1); in assay [3]; in assay [4] (reticulocytes); in assay [5] (cho-k1)) was “Not Active” each time.
As for `Nc1cc(-c2ccncc2)c[nH]c1=O` [INAMRINONE], the IC50 entry (in assay [1]; against Neutrophil elastase; in assay [2] (cho-k1); in assay [3]; in assay [4] (reticulocytes); in assay [5] (cho-k1)) was “Not Active” each time.
Regarding `CCCCC1=NC2(CCCC2)C(=O)N1Cc1ccc(-c2ccccc2-c2nnn[nH]2)cc1` [IRBESARTAN], the IC50 entry (in assay [1]; against Neutrophil elastase; in assay [2] (cho-k1); in assay [3]; in assay [4] (reticulocytes); in assay [5] (cho-k1)) was “Not Active” throughout.
In the case of `CN1CCC(=C2c3ccccc3CC(=O)c3sccc32)CC1` [KETOTIFEN], the IC50 entry in assay [1] was “Not Active”; on Neutrophil elastase it was “Not Active”; in assay [2] (read-out: IC50), 160 nM; in assay [3], “Not Active”; in assay [4] (reticulocytes), “Not Active”; in assay [5] (read-out: IC50), 2540 nM. The inhibition constant (Ki) in assay [2] turned out to be 84 nM; in assay [5] (read-out: Ki) it was 1450 nM.
Consider `N[C@@H](Cn1ccc(=O)c(O)c1)C(=O)O` [L-MIMOSINE], for which the 50% inhibitory concentration (IC50) result (in assay [1]; at Neutrophil elastase; in assay [2] (cho-k1); in assay [3]; in assay [4] (reticulocytes); in assay [5] (cho-k1)) was “Not Active” throughout.
On to `C[N+](C)(C)C[C@H](O)CC(=O)[O-]` [LEVOCARNITINE], for which the IC50 result (in assay [1]; at Neutrophil elastase; in assay [2] (cho-k1); in assay [3]; in assay [4] (reticulocytes); in assay [5] (cho-k1)) was “Not Active” each time.
For `C[C@H]1COc2c(N3CCN(C)CC3)c(F)cc3c(=O)c(C(=O)O)cn1c23.C[C@H]1COc2c(N3CCN(C)CC3)c(F)cc3c(=O)c(C(=O)O)cn1c23.O` [LEVOFLOXACIN], the half-inhibitory concentration (IC50) result (in assay [1]; against Neutrophil elastase; in assay [2] (cho-k1); in assay [3]; in assay [4] (reticulocytes); in assay [5] (cho-k1)) was “Not Active” in each case.
`CCn1cc(C(=O)O)c(=O)c2cc(F)c(N3CCNC(C)C3)c(F)c21` (centres undefined) [LOMEFLOXACIN]: the IC50 entry (in assay [1]; on Neutrophil elastase; in assay [2] (cho-k1); in assay [3]; in assay [4] (reticulocytes); in assay [5] (cho-k1)) was “Not Active” in each case.
Take `CN1CCCC(CN2c3ccccc3Sc3ccccc32)C1` (centres undefined) [MEPAZINE]: the IC50 entry in assay [1] was “Not Active”; on Neutrophil elastase it was “Not Active”; in assay [2] (read-out: IC50) it was 495 nM; in assay [3], “Not Active”; in assay [4] (reticulocytes), “Not Active”; in assay [5] (cho-k1) it was “Not Active”. Moreover, in assay [2], the Ki worked out at 259 nM.
`Cc1cccc(C)c1NC(=O)C1CCCCN1C` (centres undefined) [MEPIVACAINE]: the IC50 entry (in assay [1]; against Neutrophil elastase; in assay [2] (cho-k1); in assay [3]; in assay [4] (reticulocytes); in assay [5] (cho-k1)) was “Not Active” in each case.
Take `CN(C)C(=N)NC(=N)N` [METFORMIN]: the IC50 entry (in assay [1]; against Neutrophil elastase; in assay [2] (cho-k1); in assay [3]; in assay [4] (reticulocytes); in assay [5] (cho-k1)) was “Not Active” each time.
As for `CC(C)(C)NCC(O)COc1cccc2c1CC(O)C(O)C2` (centres undefined) [NADOLOL], the IC50 entry (in assay [1]; on Neutrophil elastase; in assay [2] (cho-k1); in assay [3]; in assay [4] (reticulocytes); in assay [5] (cho-k1)) was “Not Active” in each case.
As to `C[C@]12CC[C@H]3[C@@H](CCC4=CC(=O)CC[C@@H]43)[C@@H]1CC[C@@H]2O` [NANDROLONE], the IC50 entry (in assay [1]; on Neutrophil elastase; in assay [2] (cho-k1); in assay [3]; in assay [4] (reticulocytes); in assay [5] (cho-k1)) was “Not Active” each time.
Regarding `C[C@@H]1C/C=C/C=C/C=C/C=C/[C@H](O[C@@H]2O[C@H](C)[C@@H](O)[C@H](N)[C@@H]2O)C[C@@H]2O[C@](O)(C[C@@H](O)C[C@H]3O[C@@H]3/C=C/C(=O)O1)C[C@H](O)[C@H]2C(=O)O` [NATAMYCIN], the IC50 result (in assay [1]; on Neutrophil elastase; in assay [2] (cho-k1); in assay [3]; in assay [4] (reticulocytes); in assay [5] (cho-k1)) was “Not Active” each time.
